Read-outs that look alike come from different tables or passages of the source.
Target: T1, AKR1C1 (Homo sapiens, UniProt Q04828)
T1 construct: made in house
T1 sequence (Q04828 1-323): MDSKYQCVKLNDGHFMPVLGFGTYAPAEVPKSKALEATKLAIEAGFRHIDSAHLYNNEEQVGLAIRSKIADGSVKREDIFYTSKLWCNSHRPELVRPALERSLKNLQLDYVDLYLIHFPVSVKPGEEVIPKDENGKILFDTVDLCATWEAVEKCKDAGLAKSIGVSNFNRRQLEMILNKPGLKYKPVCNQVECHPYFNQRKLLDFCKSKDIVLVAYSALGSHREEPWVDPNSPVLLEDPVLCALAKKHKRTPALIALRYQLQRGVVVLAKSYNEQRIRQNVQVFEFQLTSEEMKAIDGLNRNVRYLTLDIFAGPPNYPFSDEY
Assay: Inhibition of recombinant AKR1C1, oxidation of 1-acenaphthenol, progress-curve analysis
Type: biochemical
Conditions: for k+3: irreversible binding of second inhibitor molecule to E-NADH-I; for k+2: irreversible binding of second inhibitor molecule to E-NAD-I
Method: To investigate the effect of ten selected ruthenium compounds, we measured their effect on the time course of oxidation of the artificial substrate 1-acenaphtenol by recombinant enzymes AKR1C1–3. The recombinant enzymes AKR1C1–AKR1C3 were prepared as described previously ([Brozic et al., 2006]). Since the artificial substrate is racemic, the oxidation follows a double exponential pattern as described previously ([Traven et al., 2015]). The in vitro catalytic activity of AKR1C1–3 enzymes was determined spectrophotometrically by monitoring the increase in NADH absorbance at 340 nm (ε(λ340) = 6220 M^−1cm^−1) in the presence of the substrate 1-acenaphthenol. Enzymatic reactions (300 µL) were performed in 100 mm potassium phosphate buffer (pH 9.0), 0.005% (v/v) TritonX-114, 5% (v/v) DMSO, containing 2.3 mm NAD^+ and 1-acenaphthenol at final concentrations of 90, 180, and 250 µM for AKR1C1, AKR1C2, and AKR1C3, respectively. A total of 5 µL of a tested compound in DMSO was added to the reaction mixture. The final concentrations of the tested compounds ranged from 1 to 200 μM, depending on the extent of inhibition (Supplementary Data). The reaction was started by adding 15 µL of AKR1C1, AKR1C2, or AKR1C3 dissolved in 1x PBS (pH 7.3) at final concentrations of 0.11, 0.16, and 1.5 µM, respectively. AKR1C1–3 activity was measured at 37°C for 3 h without shaking using a PowerWave XS microplate reader (Biotek; Winooski, VT, United States). Measurements at seven different concentrations were performed in duplicates or triplicates (Supplementary Figures S2). To mechanistically explain all the obtained progress curves for each ruthenium complex on each enzyme by a common reaction scheme, we extended the originally proposed scheme so that the interaction of the ruthenium complex with apo- and holoenzyme was allowed to be rapid and followed by a slow irreversible association of a second ruthenium complex molecule. However, the affinity of the Ru complexes for the apoenzymes was much lower so this part was excluded from the proposed kinetic model for clarity (Figure 4).
FIGURE 4 Reaction scheme for the oxidation of 1-acenaphtenol by AKR1C1-3 and its inhibition by ruthenium compounds. E represents apoenzyme, E-NAD and E-NADH represent holoenzyme with bound NAD^+ and NADH, respectively. A and B are enantiomers of substrate 1-acenaphtenol. Symbols which include I (ruthenium compound) represent holoenzyme in complex with one or two inhibitor molecules. KNAD, KNADH, and K2-3 are equilibrium constants and k+2–3 are second-order association rate constants for the binding of the second inhibitor molecule to the enzyme. The progress curves for each enzyme in the presence of ruthenium complexes were analyzed by the WEB server ENZO (https://enzo.cmm.ki.si/) designed exactly for such purposes ([Bevc et al., 2011]).

[1] = reversible binding to holoenzyme E-NADH, read-out: K3
[2] = reversible binding to holoenzyme E-NAD, read-out: K2

Compound | k+3 | Ki [1] | k+2 | Ki [2] | inhibitory effect (in words) | irreversible inhibition (in words)
Cc1ccc(C(C)C)cc1.O=C(C=C([O][Ru][Cl])c1ccc(I)cc1)C(F)(F)F [Compound 1] | 9.4 M⁻¹ s⁻¹ | 21.4 nM |  |  |  | 
C1N2CN3CN1CP(C2)C3.Cc1ccc(C(C)C)cc1.F[P-](F)(F)(F)(F)F.O=C(C=C([O][Ru+])c1ccc(I)cc1)C(F)(F)F [Compound 2] |  |  | 25.9 M⁻¹ s⁻¹ | 2800 nM |  | 
CN(C)c1ccc(C(=CC(=O)C(F)(F)F)[O][Ru][Cl])cc1.Cc1ccc(C(C)C)cc1 [Compound 3, (η^6-p-cymene)chlorido(4,4,4-trifluoro-1-(4-(dimethylamino)phenyl)-1,3-butandionato)ruthenium(II)] | 4.3 M⁻¹ s⁻¹ | 42.9 nM | 31.5 M⁻¹ s⁻¹ | 107000 nM |  | 
Cc1ccc(C(C)C)cc1.O=C(C=C([O][Ru][Cl])c1ccc2c(c1)OCO2)C(F)(F)F [Compound 5] | 6.0 M⁻¹ s⁻¹ | 23.5 nM |  |  |  | 
C1N2CN3CN1CP(C2)C3.Cc1ccc(C(C)C)cc1.F[P-](F)(F)(F)(F)F.O=C(C=C([O][Ru+])c1ccc2c(c1)OCO2)C(F)(F)F [Compound 6] |  |  | 48.8 M⁻¹ s⁻¹ | 3100 nM |  | 
Cc1ccc(C(C)C)cc1.[Cl-].[O-]c1c(I)cc(Cl)c2cccnc12.[Ru+2] [Compound 7] | 17.1 M⁻¹ s⁻¹ | 345 nM |  |  |  | 
C1N2CN3CN1CP(C2)C3.Cc1ccc(C(C)C)cc1.F[P-](F)(F)(F)(F)F.[O-]c1c(I)cc(Cl)c2cccnc12.[Ru+2] [Compound 8] |  |  |  | 350 nM |  | 
Cc1ccc(C(C)C)cc1.O=[N+]([O-])c1ccc([O][Ru][Cl])c2ncccc12 [Compound 9, (η ^6-p-Cymene) (nitroxolinato)chloridoruthenium (II)] |  |  |  | 227000 nM | very weak inhibitory effect | virtually no irreversible inhibition
C1N2CN3CN1CP(C2)C3.Cc1ccc(C(C)C)cc1.F[P-](F)(F)(F)(F)F.O=[N+]([O-])c1ccc([O][Ru+])c2ncccc12 [Compound 10, (η ^6-p-cymene)(nitroxolinato)(pta)ruthenium(II) hexafluorophosphate] |  |  | 13.5 M⁻¹ s⁻¹ | 49700 nM |  | 
